# Values joined by “and” are separate entries in the source; they are usually repeats but may differ in a detail not shown here. Equal values may be shown once.
# Target: T1, human OGG1 enzyme (Homo sapiens, UniProt O15527)
# Assay: Differential scanning fluorimetry (DSF) thermal shift assay
# Type: binding
# Design: ∆Tm (K): unit of the concentration uncertain
# Settings: 99 μM
# Experimental: The temperature was increased from 20 °C to 85 °C with 10 readings/degree. Tm values were calculated using an excel template and fitting to the Boltzmann equation in Prism v.6.07 (GraphPad Software).
# T1 sequence (O15527 whole entry): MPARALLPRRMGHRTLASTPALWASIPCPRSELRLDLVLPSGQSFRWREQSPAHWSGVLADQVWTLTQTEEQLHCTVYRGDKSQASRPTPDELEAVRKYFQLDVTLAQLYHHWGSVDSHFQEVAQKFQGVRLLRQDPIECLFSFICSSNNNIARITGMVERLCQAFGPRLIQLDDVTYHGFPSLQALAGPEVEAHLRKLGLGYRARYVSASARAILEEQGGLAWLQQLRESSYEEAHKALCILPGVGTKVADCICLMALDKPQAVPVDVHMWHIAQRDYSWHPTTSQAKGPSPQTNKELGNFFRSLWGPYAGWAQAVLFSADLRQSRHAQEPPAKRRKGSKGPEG
row,SMILES,∆Tm (K)
1,COc1ccc([C]2CCCCCN2C(=O)Nc2noc(C)c2C)cc1 [ZINC000455661485],-0.14 K
2,O=C(NCc1ccn(-c2ccccc2)n1)c1cc(-c2ccccc2)no1 [ZINC000617287579],-0.19 K
3,Cc1ccn2c(NC(=O)C3(Oc4ccc(Cl)cc4)CC3)nnc2c1 [ZINC000341519123],0.37 K
4,c1cnc2ccc(CNc3nnc4ccccn34)cc2c1 [ZINC000155922887],inactivea
5,Cc1cccc2nc(C(=O)NCc3ccc(Br)o3)cn12 [ZINC000677630607],-0.08 K
6,CCc1ccc(C(=O)NC[C]2CS(=O)(=O)c3ccccc3O2)cc1 [ZINC001002782586],-0.13 K
7,CCc1ccc(CC(=O)Nc2nnc(C3CC3)n2C)cc1 [ZINC000157183023],Inactivea
8,C[C](CNC(=O)c1cn2c(n1)CCC2)Oc1ccc(Cl)cc1 [ZINC000047544921],0.05 K
9,C[C]C(=O)Nc1nnc2ccccn12 [ZINC000613462643],0.05 K
10,O=C(Cn1c(C(F)(F)F)nc2ccccc21)NCc1ccccc1 [ZINC000032814728],0.79 K
11,Cn1ncc(NC(=O)N[C]2COc3ccc(Cl)cc32)c1C(F)F [ZINC000337657385],-0.16 K
12,Cn1nc(Nc2ncnc3cc(F)c(F)cc23)cc1C1CC1 [ZINC000439491208],-0.04 K
13,C[C](NC(=O)c1ccc(C)nc1)c1cnn(-c2ccc(F)cc2)c1C [ZINC000142711832],-0.11 K
14,Cc1ccc(CNC(=O)Nc2cnn(C)c2C(F)(F)F)c(C)c1 [ZINC000000241283],0.39 K
15,C[C](CCc1ccccc1)C(=O)N1CC(c2ccccc2)C1 [ZINC000342133714],0.08 K
16,Cn1ncc2c(Nc3cccc(-c4cccs4)c3)ncnc21 [ZINC000445022399],-0.23 K
17,C[C](CNC(=O)c1cn(-c2ccccc2)nn1)Oc1ccc(C)cc1 [ZINC000080662795],-0.11 K
18,COc1ccc2[nH]cc(CC(=O)Nc3nnc4cc(C)ccn34)c2c1 [ZINC000520908378],-0.38 K

row,SMILES,∆Tm (K)
1,Cc1cscc1NC(=O)NCc1cccc(-n2cncn2)c1 [ZINC001624168456],0.15 K
2,Cc1ccc(C(=O)NCc2nc(-c3cccnc3)no2)cc1C [ZINC001046413262],-0.07 K
3,Cc1ccc(NC(=O)N2CC(O)(c3ccc(Cl)cc3)C2)s1 [ZINC000776423770],-0.42 K
4,Cc1ccc(NC(=O)N2CC(O)(c3ccc(Cl)cc3)C2)s1 [ZINC000633809751],0.48 K
5,C=Cc1ccc(C(=O)NCc2cn(-c3ccccc3)nc2C)cc1 [ZINC000192206237],0.83 K
6,CN1C(=O)Cc2cc(Nc3ncnc4c(F)cccc34)ccc21 [ZINC000350560229],-0.01 K
7,O=C(NCc1nc(-c2ccccc2)no1)c1cn(-c2ccccc2)nn1 [ZINC000507023994],-0.92 K
8,CCN(Cc1ccccc1)S(=O)(=O)NC1Cc2ccccc2C1 [ZINC001146929060],0.00 K and 0 K
9,CC(C)(NC(=O)NCc1ccco1)c1ccc(Br)cc1 [ZINC000088254610],0.27 K
10,O=C(NCc1cnn(-c2ccccc2)c1)c1cc(C2CC2)no1 [ZINC000045518705],-0.07 K
11,O=S(=O)(Nc1ccc(Cl)cc1F)N1CCc2ccccc2C1 [ZINC000990255105],-0.03 K
12,COc1ccc(C2(CNC(=O)c3ccc(F)s3)CCC2)cc1 [ZINC000572161337],0.17 K
13,O=C(NCC1([C](O)c2ccccc2)CC1)c1ccc(Cl)cc1 [ZINC000700852234],-0.27 K
14,O=C(NC1CN(C(=O)c2ccc(Cl)s2)C1)c1ccc(Cl)o1 [ZINC000357905855],0.23 K
15,O=C(NCC1(O)CN(C(=O)c2cccnn2)C1)c1ccc(Cl)cc1 [ZINC000584413720],0.65 K
16,Cn1c(=O)n(C)c2cc(Nc3ncnc4ccccc34)ccc21 [ZINC000358521717],0.43 K
17,O=C(NCc1ccc2oc(=O)[nH]c2c1)c1cc(C2CC2)on1 [ZINC000025095824],0.10 K and 0.1 K

# Same assay, conditions: 495 µM
row,SMILES,∆Tm (K)
1,CCC(C)(O)C(=O)Nc1nnc2n1CCCC2 (centres unmarked) [ZINC000935297684],-0.15 K
2,Cc1conc1NC(=O)c1csc2cncn12 [ZINC000772563154],0.52 K
3,COCC(C)(O)C(=O)Nc1cnc2ccccn12 (centres unmarked) [ZINC000618358369],0.11 K
4,Cc1csc(NC(=O)N2CC(C)C(O)C2)n1 (centres unmarked) [ZINC000350512979],0.07 K
5,O=C(NCC1(O)CCC1)c1nc(Cl)cs1 [ZINC000789956517],0.07 K
6,Cc1n[nH]cc1CNC(=O)NC1(C)CC1(C)C (centres unmarked) [ZINC000663691150],0.01 K
7,Cc1ccc(NC(=O)Nc2c[nH]nc2C)s1 [ZINC000075413056],0.35 K
8,CC1(C)CC1(C)NC(=O)c1cc2cccn2cn1 (centres unmarked) [compound 2],1.6 K and > 1 K
9,Cc1cc(CNC(=O)c2c(O)cccc2F)[nH]n1 [ZINC000681276767],0.01 K
10,Cc1n[nH]cc1CNC(=O)C1Cc2ccccc21 (centres unmarked) [ZINC000088452370],0.26 K
11,Cn1ccnc1NC(=O)c1nc(Cl)cs1 [ZINC000851710058],-0.05 K
12,Cc1cc(NC(=O)c2coc(C3CC3)n2)cs1 [ZINC000634423932],-0.08 K
13,Cc1n[nH]cc1CNC(=O)C(C)c1ccccc1 (centres unmarked) [ZINC000182379077],0.08 K
14,CC1(C)CC(NC(=O)c2csc3cncn23)C1 [compound 4],0.5 K
15,COCc1csc(NCc2ccccc2)n1 [ZINC000196610182],-0.06 K
16,Cc1cc(=O)c(C(=O)NC2(C)CC2(C)C)c[nH]1 (centres unmarked) [ZINC000620078540],0.03 K
17,CC1CC1CNC(=O)C1CCc2cccnc21 (centres unmarked) [ZINC000341791847],0.38 K
18,CC(=O)Nc1nc(-c2ccc(Cl)cc2)n[nH]1 [ZINC000517746346],-0.15 K
19,COc1ccc(F)cc1CNC(=O)c1cn[nH]c1 [ZINC000188683358],-0.01 K
20,Cc1csc(NC(=O)c2ccc(N)cc2)n1 [ZINC000005740683],0.52 K
21,Cc1conc1NC(=O)c1nc(Cl)cs1 [ZINC000789997344],-0.03 K
22,O=C(NCc1ccccc1O)c1ccc(F)cc1 [ZINC000082283111],0.67 K
23,Cc1csc(Nc2ncnc3sccc23)n1 [ZINC000163077816],-0.51 K
24,Cc1ccccc1CNC(=O)Nc1cnnn1C [ZINC000787791820],-0.02 K
25,Cc1cnc(Nc2ncnc3ccccc23)s1 [ZINC000031949200],-0.03 K
26,Cc1nocc1NC(=O)Nc1ccnn1C(C)C [ZINC000866108350],-0.03 K
27,CCCC1CCCC1C(=O)NCc1c[nH]nc1C (centres unmarked) [ZINC000294547394],0.18 K

# Same assay, conditions: 495 (unit uncertain) as printed in sheet footnote
row,SMILES,∆Tm (K)
1,O=C(Nc1noc2c1CCCC2)C1CC12CCC2 (centres unmarked) [compound 1],2.8
2,CC1(C)CC1(C)NC(=O)c1cc2cccn2cn1 (centres unmarked) [compound 2],1.6
3,CC1(C)CC(NC(=O)c2csc3cncn23)C1 [compound 4],0.5

# Same assay, conditions: concentration not given
row,SMILES,ΔTm [K]
1,O=C(Nc1noc2c1CCCC2)C1CC12CCC2 (centres unmarked) [compound 1],2.8

# Target: T1, human OGG1 enzyme
# Assay: OGG1 glycosylase activity assay (enzyme inhibition, APE1-coupled fluorescence)
# Type: biochemical
# Settings: Concentration (M) 9.67e-7
# Experimental: “8” signifies 8-oxoA and “FAM” and “Dab” signify fluorescein and dabcyl (TriLink Biotech). Briefly, compounds dissolved in DMSO were dispensed using an Echo 550 (Labcyte), followed by transfer of enzyme and substrate solutions manually with a 16-channel pipette or with a Multidrop (Thermo Scientific). The plates were centrifuged, sealed and incubated at room temperature overnight (15 h) and read the following morning in an Hidex Sense plate reader (Hidex Oy) using a 485-nm filter with a bandwidth of 10 nm for excitation and a 535-nm filter with a bandwidth of 20 nm for emission.
row,SMILES,"OGG1 inhibition, dose-response (Figure2C)"
1,O=C(Nc1noc2c1CCCC2)C1CC12CCC2 (centres unmarked) [compound 1],3.85 and 6.91

# Same assay, conditions: Concentration (M) 0.000248
row,SMILES,"OGG1 inhibition, dose-response (Figure2C)"
1,O=C(Nc1noc2c1CCCC2)C1CC12CCC2 (centres unmarked) [compound 1],16.25 and 9.26

# Same assay, conditions: Concentration (M) 0.000495
row,SMILES,"OGG1 inhibition, dose-response (Figure2C)"
1,O=C(Nc1noc2c1CCCC2)C1CC12CCC2 (centres unmarked) [compound 1],25.93 and 22.47

# Same assay, conditions: Table S2, virtual fragment screen hits; read-out: pIC50 (converted)
row,SMILES,IC50 [µM]
1,CC1(C)CC1(C)NC(=O)c1cc2cccn2cn1 (centres unmarked) [compound 2],> 100
2,CC1(C)CC(NC(=O)c2csc3cncn23)C1 [compound 4],> 100

# Same assay, conditions: at 99 μM; read-out: percent inhibition of OGG1
row,SMILES,inhibition at 99 µM [%]
1,O=C(Nc1noc2c1CCCC2)C1CC12CCC2 (centres unmarked) [compound 1],< 50

# Same assay, conditions: listed as Fragment 1
row,SMILES,IC50
1,O=C(Nc1noc2c1CCCC2)C1CC12CCC2 (centres unmarked) [compound 1],too weak to determine an IC50 value

# Same assay, conditions: read-out: IC50
row,SMILES,IC50 [µM]
1,O=C(Nc1noc2c1CCCC2)C1CC12CCC2 (centres unmarked) [compound 1],> 99

# Source: publication PMC11836371, “Virtual fragment screening for DNA repair inhibitors in vast chemical space” (Nature Communications, 2025)
